Where two headings read alike, the source gives them in different places.
Legend:
[1] = Stability of AAs in rat plasma (QC samples, HPLC-MS/MS); type: in vitro ADME; conditions: n = 5; for Short-term stability (RSD/%): fresh rat plasma at room temperature for 24 h before sample preparation; for Post-preparation stability (RSD/%): prepared rat plasma samples at room temperature for 24 h; for Long-term stability (RSD/%): rat plasma stored at –20 °C for 14 days; for Freeze-thaw stability (RSD/%): rat plasma, three freeze-thaw cycles (–20 °C 24 h, thawed at room temperature)
Method: The QC samples were assayed under several different conditions to evaluate the stability of AAs in rat plasma. The freeze-thaw stability of the analyte was determined over three freeze-thaw cycles. In each freeze-thaw cycle, the samples were frozen and stored at –20 °C for 24 h, then thawed at room temperature. To evaluate the long-term stability of AAs, the plasma samples were stored at –20 °C for 14 days. For the short-term stability, fresh plasma samples were kept at room temperature for 24 h before the sample preparation. After keeping the samples at room temperature for 24 h, post-preparation stability was tested. Stability was evaluated by comparing the mean concentration of the stored samples with the mean concentration of those prepared freshly. The stability data were acceptable when the bias was within ±15% of the actual value.

[2] = Multi-component pharmacokinetics of AAs in rats after oral administration of AF and HAF extracts (HPLC-MS/MS of plasma); set-up: species or system Sprague–Dawley (SD) rats; conditions: Sprague-Dawley, rat, in vivo
Method: An aliquot (100 μl) of rat plasma was spiked with 10.0 μL IS, and vortexed with 300 μL acetic ether for 10 s before the supernatant was transferred into centrifuge tube. The extraction was repeated with 200 μL acetic ether. The combined organic layer was evaporated to dryness under a gentle stream of nitrogen at RT. The residue was resolved in 100 μL methanol and centrifuged at 15,800 × g for 10 min. The supernatant was used for HPLC-MS/MS analysis.
Chromatographic separation was performed by an Acquity C18 column (4.6 × 100 mm,3.5 μm) (Agilent Technologies, USA). The mobile phase was composed of water (containing 10 mM ammonium formate and formic acid, pH 3.0) (solvent A) and ACN (solvent B). The gradient profile of B was: 0–10 min, 35–38%; 10–11 min, 38– 60%; 11–17 min, 60–35%B; 17–18 min, 35%. The flow rate was kept at 0.5 mL/min. The column oven was set at 30 °C and the injection volume was 10 μL.
The mass spectrometer was operated in the positive ion electrospray mode with multiple reaction monitoring (MRM). The optimal MS parameters were set at the following parameters: a desolvation gas temperature of 450 °C, desolvation gas flow of 10 L/min, a nebulizer gas of 40 psi and a capillary voltage of 4000 V. The mass spectrometry conditions of AA I, AA II, AA C, AA D, 7-OH AA I and IS are summarized in Additional file 1: Table S1.
The rats were randomly divided into 6 groups (low, middle and high doses of AF and HAF; n = 6). After a week of acclimation, the animals were fasted for 12 h with free access to water. Then, AF and HAF extracts were administered to the rats. The extracts were suspended in 0.5% CMC–Na solution, and the oral doses (according to AA I in the extracts) were 3.0 mg/kg, 8.0 mg/kg and 15.0 mg/kg, respectively.
Blood samples were collected from the ocular vein using dried heparinized tubes at 0, 0.083, 0.17, 0.33, 0.50, 0.67, 0.83, 1, 2, 4, 6, 8, 10, 12 and 24 h from the start. The animals received fluid replacement (sterile isotonic saline) after every two samplings since the fifth collecting. The samples were then immediately centrifuged at 3100 × g for 10 min. The plasma obtained was frozen and stored at –20 °C until analysis.
All statistical analyses were performed using the SPSS 11.0 software (Chicago, USA). P values <0.05 were considered statistically significant. Pharmacokinetic analysis was performed using the proprietary DAS 3.0 software (Mathematical Pharmacology Professional Committee of China, Shanghai, China).
After the oral administration of AF and HAF extracts, rat plasma samples were prepared and analyzed as described above. Five main AAs can be detected in rat blood with the proposed HPLC-MS/MS method. The mean pharmacokinetic parameters of five AAs in AF and HAF are summarized in Tables 4, 5 and Additional files 5, 6, 7: Tables S4-S6. The maximum concentration (C max) was the experimentally-observed value. The other pharmacokinetic parameters of the five analytes were fitted by DAS 3.0 software.

[3] = high QC conc ng/mL: AA I 1830, AA II 3200, AA C 2980, AA D 3680, 7-OH AA I 3280
[4] = low QC conc ng/mL: AA I 1.83, AA II 8.00, AA C 186.3, AA D 36.8, 7-OH AA I 82.0
[5] = middle QC conc ng/mL: AA I 457.5, AA II 400, AA C 372.5, AA D 460, 7-OH AA I 410
[6] = 3 mg/kg, AF extract, low dose (3.0 mg/kg as AA I), analyte dose mg/kg: AA I 3.0, AA II 0.21, AA C 1.42, AA D 1.60, 7-OH AA I 2.33, n = 6
[7] = 3 mg/kg, HAF extract, low dose (3.0 mg/kg as AA I), analyte dose mg/kg: AA I 3.0, AA II 0.26, AA C 1.53, AA D 1.51, 7-OH AA I 2.48, n = 6
[8] = 8 mg/kg, AF extract, mid dose (8.0 mg/kg as AA I), analyte dose mg/kg: AA I 8.0, AA II 0.56, AA C 3.78, AA D 4.26, 7-OH AA I 6.22, n = 6
[9] = 8 mg/kg, HAF extract, mid dose (8.0 mg/kg as AA I), analyte dose mg/kg: AA I 8.0, AA II 0.69, AA C 4.09, AA D 4.03, 7-OH AA I 6.62, n = 6
[10] = 15 mg/kg, AF extract, high dose (15.0 mg/kg as AA I), analyte dose mg/kg: AA I 15.0, AA II 1.05, AA C 7.09, AA D 8.00, 7-OH AA I 11.66, n = 6
[11] = 15 mg/kg, HAF extract, high dose (15.0 mg/kg as AA I), analyte dose mg/kg: AA I 15.0, AA II 1.29, AA C 7.66, AA D 7.56, 7-OH AA I 12.41, n = 6

O=C(O)c1cc2c(c3c1c([N+](=O)[O-])cc1ccccc13)OCO2 [AA II]
Short-term stability (RSD/%) [1, 3]: 9.3% | Short-term stability (RSD/%) [1, 4]: 5.0% | Short-term stability (RSD/%) [1, 5]: 5.5% | Post-preparation stability (RSD/%) [1, 3]: 6.5% | Post-preparation stability (RSD/%) [1, 4]: 4.4% | Post-preparation stability (RSD/%) [1, 5]: 3.6% | Long-term stability (RSD/%) [1, 3]: 7.3% | Long-term stability (RSD/%) [1, 4]: 1.2% | Long-term stability (RSD/%) [1, 5]: 8.2% | Freeze-thaw stability (RSD/%) [1, 3]: 14.3% | Freeze-thaw stability (RSD/%) [1, 4]: 1.3% | Freeze-thaw stability (RSD/%) [1, 5]: 10.2% | AUC(0-inf) [2, 6]: 3.96 ± 1 µg·h/mL | Cmax [2, 6]: 0.591 ± 0.191 µg/mL | Tmax [2, 6]: 1.03 ± 0.18 h | CL/F ([2]; 3 mg/kg, AF extract, low dose (3.0 mg/kg as AA I), analyte dose mg/kg: AA I 3.0, AA II 0.21, AA C 1.42, AA D 1.60, 7-OH AA I 2.33, n = 6, read-out: CLz/F (converted)): 0.07 L/h/kg | Vd/F ([2]; 3 mg/kg, AF extract, low dose (3.0 mg/kg as AA I), analyte dose mg/kg: AA I 3.0, AA II 0.21, AA C 1.42, AA D 1.60, 7-OH AA I 2.33, n = 6, read-out: Vz/F): 0.49 ± 0.06 L/kg | half-life ([2]; 3 mg/kg, AF extract, low dose (3.0 mg/kg as AA I), analyte dose mg/kg: AA I 3.0, AA II 0.21, AA C 1.42, AA D 1.60, 7-OH AA I 2.33, n = 6, read-out: t 1/2z (converted)): 4.98 ± 0.55 h | AUC(0-inf) [2, 7]: 2.72 ± 0.795 µg·h/mL | Cmax [2, 7]: 0.293 ± 0.0552 µg/mL | Tmax [2, 7]: 0.81 ± 0.14 h | CL/F ([2]; 3 mg/kg, HAF extract, low dose (3.0 mg/kg as AA I), analyte dose mg/kg: AA I 3.0, AA II 0.26, AA C 1.53, AA D 1.51, 7-OH AA I 2.48, n = 6, read-out: CLz/F (converted)): 0.08 L/h/kg | Vd/F ([2]; 3 mg/kg, HAF extract, low dose (3.0 mg/kg as AA I), analyte dose mg/kg: AA I 3.0, AA II 0.26, AA C 1.53, AA D 1.51, 7-OH AA I 2.48, n = 6, read-out: Vz/F): 0.55 ± 0.07 L/kg | half-life ([2]; 3 mg/kg, HAF extract, low dose (3.0 mg/kg as AA I), analyte dose mg/kg: AA I 3.0, AA II 0.26, AA C 1.53, AA D 1.51, 7-OH AA I 2.48, n = 6, read-out: t 1/2z (converted)): 4.94 ± 0.61 h | AUC(0-inf) [2, 8]: 7.82 ± 1.98 µg·h/mL | Cmax [2, 8]: 1.14 ± 0.193 µg/mL | Tmax [2, 8]: 1.33 ± 0.21 h | CL/F ([2]; 8 mg/kg, AF extract, mid dose (8.0 mg/kg as AA I), analyte dose mg/kg: AA I 8.0, AA II 0.56, AA C 3.78, AA D 4.26, 7-OH AA I 6.22, n = 6, read-out: CLz/F (converted)): 0.07 L/h/kg | Vd/F ([2]; 8 mg/kg, AF extract, mid dose (8.0 mg/kg as AA I), analyte dose mg/kg: AA I 8.0, AA II 0.56, AA C 3.78, AA D 4.26, 7-OH AA I 6.22, n = 6, read-out: Vz/F): 0.48 ± 0.05 L/kg | half-life ([2]; 8 mg/kg, AF extract, mid dose (8.0 mg/kg as AA I), analyte dose mg/kg: AA I 8.0, AA II 0.56, AA C 3.78, AA D 4.26, 7-OH AA I 6.22, n = 6, read-out: t 1/2z (converted)): 5.06 ± 0.49 h | AUC(0-inf) [2, 9]: 3.87 ± 1.2 µg·h/mL | Cmax [2, 9]: 0.412 ± 0.104 µg/mL | Tmax [2, 9]: 0.81 ± 0.16 h | CL/F ([2]; 8 mg/kg, HAF extract, mid dose (8.0 mg/kg as AA I), analyte dose mg/kg: AA I 8.0, AA II 0.69, AA C 4.09, AA D 4.03, 7-OH AA I 6.62, n = 6, read-out: CLz/F (converted)): 0.07 L/h/kg | Vd/F ([2]; 8 mg/kg, HAF extract, mid dose (8.0 mg/kg as AA I), analyte dose mg/kg: AA I 8.0, AA II 0.69, AA C 4.09, AA D 4.03, 7-OH AA I 6.62, n = 6, read-out: Vz/F): 0.49 ± 0.06 L/kg | half-life ([2]; 8 mg/kg, HAF extract, mid dose (8.0 mg/kg as AA I), analyte dose mg/kg: AA I 8.0, AA II 0.69, AA C 4.09, AA D 4.03, 7-OH AA I 6.62, n = 6, read-out: t 1/2z (converted)): 4.95 ± 0.53 h | AUC(0-inf) [2, 10]: 12.7 ± 2.96 µg·h/mL | Cmax [2, 10]: 1.52 ± 0.2 µg/mL | Tmax [2, 10]: 1.83 ± 0.29 h | CL/F ([2]; 15 mg/kg, AF extract, high dose (15.0 mg/kg as AA I), analyte dose mg/kg: AA I 15.0, AA II 1.05, AA C 7.09, AA D 8.00, 7-OH AA I 11.66, n = 6, read-out: CLz/F (converted)): 0.11 L/h/kg | Vd/F ([2]; 15 mg/kg, AF extract, high dose (15.0 mg/kg as AA I), analyte dose mg/kg: AA I 15.0, AA II 1.05, AA C 7.09, AA D 8.00, 7-OH AA I 11.66, n = 6, read-out: Vz/F): 0.82 ± 0.09 L/kg | half-life ([2]; 15 mg/kg, AF extract, high dose (15.0 mg/kg as AA I), analyte dose mg/kg: AA I 15.0, AA II 1.05, AA C 7.09, AA D 8.00, 7-OH AA I 11.66, n = 6, read-out: t 1/2z (converted)): 5.16 ± 0.52 h | AUC(0-inf) [2, 11]: 5.63 ± 1.69 µg·h/mL | Cmax [2, 11]: 0.528 ± 0.0624 µg/mL | Tmax [2, 11]: 0.93 ± 0.19 h | CL/F ([2]; 15 mg/kg, HAF extract, high dose (15.0 mg/kg as AA I), analyte dose mg/kg: AA I 15.0, AA II 1.29, AA C 7.66, AA D 7.56, 7-OH AA I 12.41, n = 6, read-out: CLz/F (converted)): 0.09 L/h/kg | Vd/F ([2]; 15 mg/kg, HAF extract, high dose (15.0 mg/kg as AA I), analyte dose mg/kg: AA I 15.0, AA II 1.29, AA C 7.66, AA D 7.56, 7-OH AA I 12.41, n = 6, read-out: Vz/F): 0.72 ± 0.08 L/kg | half-life ([2]; 15 mg/kg, HAF extract, high dose (15.0 mg/kg as AA I), analyte dose mg/kg: AA I 15.0, AA II 1.29, AA C 7.66, AA D 7.56, 7-OH AA I 12.41, n = 6, read-out: t 1/2z (converted)): 5.39 ± 0.48 h

From publication PMC5303205, “Comparative studies on the multi-component pharmacokinetics of Aristolochiae Fructus and honey-fried Aristolochiae Fructus extracts after oral administration in rats” (BMC Complementary and Alternative Medicine, 2017)
